US20250059141A1, “TLR MODULATOR AND USE THEREOF” (DUALITY BIOLOGICS (SUZHOU) CO., LTD., priority 2021, published 2025)

Key:
[1] = biological target: T1, hTLR8 (human Toll-like receptor 8) (Homo sapiens, UniProt Q9NR97); assay: HEK-Blue hTLR8 reporter assay (QUANTI-Blue, OD650); type: cell-based; conditions: HEK-Blue hTLR8 cells, 24 h; class symbols; read-out: Reporter assay TLR8 EC50
T1 construct: host or cells: HEK-Blue hTLR8 (HEK293-derived reporter cells)
T1 sequence (Q9NR97 27-1041): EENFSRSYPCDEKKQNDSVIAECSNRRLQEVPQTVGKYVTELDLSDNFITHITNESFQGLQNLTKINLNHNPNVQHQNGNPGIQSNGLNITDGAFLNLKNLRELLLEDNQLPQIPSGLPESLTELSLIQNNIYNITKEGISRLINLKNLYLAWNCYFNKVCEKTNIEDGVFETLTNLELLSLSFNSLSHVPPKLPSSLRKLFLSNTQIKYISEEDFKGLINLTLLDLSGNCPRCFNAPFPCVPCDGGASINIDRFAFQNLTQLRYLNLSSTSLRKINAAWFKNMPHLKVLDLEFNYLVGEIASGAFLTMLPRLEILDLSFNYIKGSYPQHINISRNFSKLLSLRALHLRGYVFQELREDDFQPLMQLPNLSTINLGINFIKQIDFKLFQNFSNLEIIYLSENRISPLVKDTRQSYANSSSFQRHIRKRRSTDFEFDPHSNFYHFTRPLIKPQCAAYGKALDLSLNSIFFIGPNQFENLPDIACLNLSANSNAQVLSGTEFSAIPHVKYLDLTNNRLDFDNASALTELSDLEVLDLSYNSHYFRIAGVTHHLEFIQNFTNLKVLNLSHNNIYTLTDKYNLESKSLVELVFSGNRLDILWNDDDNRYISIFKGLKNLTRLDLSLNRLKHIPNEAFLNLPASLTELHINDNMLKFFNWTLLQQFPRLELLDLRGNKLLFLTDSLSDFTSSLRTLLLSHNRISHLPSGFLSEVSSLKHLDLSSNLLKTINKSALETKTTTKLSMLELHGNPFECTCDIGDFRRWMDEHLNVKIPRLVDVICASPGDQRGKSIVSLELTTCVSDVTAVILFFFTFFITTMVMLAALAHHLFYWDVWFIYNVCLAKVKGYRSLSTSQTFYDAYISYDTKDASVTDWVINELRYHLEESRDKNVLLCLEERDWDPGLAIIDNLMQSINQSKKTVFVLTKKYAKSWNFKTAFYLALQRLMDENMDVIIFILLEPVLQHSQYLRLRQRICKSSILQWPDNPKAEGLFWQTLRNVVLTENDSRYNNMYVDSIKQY
Experimental: In this example, the agonistic activity of the compounds of the present application on hTLR7 (human Toll-like receptor 7) and hTLR8 (human Toll-like receptor 8) was assessed; the induction activity of the compounds on human PBMCs for TNF-α and IFN-α production was assessed in human PBMCs (human peripheral blood mononuclear cells).
All compounds were formulated in DMSO into 30 mM stock solutions and preserved at 4° C. The reference compound ([…], Cat. No. tlrl-r848-5) was purchased from InvivoGen and formulated into a 5 mg/mL stock solution in DMSO and preserved in a freezer at −20° C. HEK-Blue hTLR7 and HEK-Blue hTLR8 cell lines were purchased from InvivoGen, and human PBMCs were purchased from Shanghai Saily Biotechnology Co., Ltd. (Cat. No. XFB—HP100B).
The major instruments used in this study were multifunctional microplate reader Flexstation III (Molecular Device), Envision (Perkin Elmer), M2e (Molecular Device), and Echo555 (Labcyte). 2.1 Agonistic activity of compounds on hTLR7 (human Toll-like receptor 7) and hTLR8 (human Toll-like receptor 8)
Compound dilution: The compounds of the present application are diluted in DMSO, for example, to about 15 mM. The reference compound was added to the plates in sequence after dilution. The compounds were serially 3-fold diluted to 10 concentrations and added to 96-well plates in duplicate.
For the negative control wells, DMSO was added at 0.2 μL/well, and the reference compound was added to the positive control wells. The final concentration of DMSO was 0.2%.
Cell plating: When an 80% confluence of HEK Blue hTLR7&8 cells in the culture flask was observed under a microscope, the culture medium was discarded, 10 mL of detection medium was added, and the cells were separated by pipetting. The cells were counted on a cytometer and diluted to 500,000 cells/mL. The cells were plated at 100 μL/50,000 cells/well in the 96-well plates containing the compounds. The compounds and cells were co-incubated at 37° C. in a 5% CO2 incubator for 24 hours.
Compound activity detection: 20 μL of cell supernatant was taken from each well and added to a plate containing QUANTI-Blue™ reagent at 180 μL/well. The plate was incubated at 37° C. for 1 hour, and the absorbance at 650 nm (OD650) was measured on the multifunctional microplate reader Flexstation III.
Compound activity data analysis: The OD650 values were analyzed by GraphPad Prism software and fitted to give dose-response curves of the compounds. The EC50 values of compounds were calculated.

[2] = system: IFN-α production in human PBMCs; assay: Induction of IFN-α in human PBMCs (ELISA); type: cell-based; conditions: PBMC, 24 h, serial 4-fold dilutions, class symbols, read-out: PBMC assay IFNa EC50
Experimental: In this example, the induction activity of the compounds of the present application on human PBMCs for TNF-α and IFN-α production was assessed in human PBMCs (human peripheral blood mononuclear cells). The human PBMCs were purchased from Shanghai Saily Biotechnology Co., Ltd. (Cat. No. XFB—HP100B). PBMC cells were treated with the compounds. The compounds of the present application are diluted in DMSO, for example, to about 15 mM. The reference compound was added to the plates in sequence after diluted to 5 mg/mL. The compounds were serially 3- or 4-fold diluted to 8 concentrations and added to plates in duplicate (Table 2-1 for serial 3-fold dilutions and Table 2-2 for serial 4-fold dilutions). For the negative control wells, DMSO was added at 0.4 μL/well, and a 5 mg/mL reference compound solution was added to the positive control wells at 0.4 μL/well. The final concentration of DMSO was 0.2%. Frozen human PBMCs in cryopreservation tubes were quickly thawed in a 37° C. water bath and transferred into 50-mL centrifuge tubes. Prewarmed RPMI1640 medium was gradually added and the mixture was well mixed and centrifuged for 15 min before the supernatant was discarded. The cells were resuspended in a culture medium and counted. The cell suspension was adjusted to 2.5×10^6 cells/mL with the culture medium. Diluted cells were added at 200 μL/500,000 cells/well in 96-well plates containing the compounds. The cell plates were incubated at 37° C./5% CO2 for 24 h.
The plate was washed 4 times, then the detection antibody was added. […] The plate was washed 4 additional times, then the enzyme was added. […] Termination of reaction: The reaction was terminated by quickly adding the stop solution at 100 μL/well. Plate reading: The reading at wavelength 450 nm was detected by an M2e instrument within 10 min after the termination.
Compound activity data analysis: The OD450 values were converted to TNF-α and IFN-α contents by GraphPad Prism software analysis and fitted to give dose-response curves of the compounds. The EC50 values for the compounds were calculated, where the Emax values are the maximal values for TNF-α and IFN-α.

SMILES | EC50 [1] [nM] | EC50 [2] [nM]
CCCN(OCc1ccc(N)cc1)C(=O)C1=Cc2ccc(C(=O)NC3COC3)cc2N=C(N)C1 [Compound 81] | 10 to 100 | 10 to 50
CCCN(OCc1ccc(N)cc1)C(=O)C1=Cc2ccc(C(=O)NC3CCCCC3)cc2N=C(N)C1 [Compound 82] | ≤ 10 | 50 to 500
CCCN(OCc1ccc(N)cc1)C(=O)C1=Cc2ccc(C(=O)NC3CCOCC3)cc2N=C(N)C1 [Compound 84] | 10 to 100 | 50 to 500
CCCN(OCc1ccc(N)cc1)C(=O)C1=Cc2ccc(C(=O)Nc3cncc(OC)c3)cc2N=C(N)C1 [Compound 85] | ≤ 10 | 50 to 500
CCCN(OCc1ccc(N)cc1)C(=O)C1=Cc2ccc(C(=O)Nc3cccc(CN)c3)cc2N=C(N)C1 [Compound 86] | ≤ 10 | 50 to 500
CCCN(OCc1ccc(N)cc1)C(=O)C1=Cc2ccc(C(=O)Nc3ncco3)cc2N=C(N)C1 [Compound 87] | ≤ 10 | 50 to 500
CCCN(OCc1ccc(N)cc1)C(=O)C1=Cc2ccc(C(=O)Nc3ccn(C)n3)cc2N=C(N)C1 [Compound 88] | ≤ 10 | 50 to 500
CCCN(OCc1ccc(N)cc1)C(=O)C1=Cc2ccc(C(=O)Nc3ccc4cn[nH]c4c3)cc2N=C(N)C1 [Compound 89] | 10 to 100 | 50 to 500
CCCN(OCc1ccc(N)cc1)C(=O)C1=Cc2ccc(C(=O)Nc3ccc4c(c3)CNC4)cc2N=C(N)C1 [Compound 90] | ≤ 10 | 50 to 500
CCCN(OCc1ccc(N)cc1)C(=O)C1=Cc2ccc(C(=O)N3CCN(C)CC3)cc2N=C(N)C1 [Compound 93] | ≤ 10 | 50 to 500
CCCN(OCc1ccc(N)cc1)C(=O)C1=Cc2ccc(C(=O)N3CC(Oc4ccccc4)C3)cc2N=C(N)C1 [Compound 94] | ≤ 10 | 50 to 500
CCCN(OCc1ccc(N)cc1)C(=O)C1=Cc2ccc(C(=O)N3CC4(COC4)C3)cc2N=C(N)C1 [Compound 95] | ≤ 10 | 50 to 500
CCCN(OCc1ccc(N)cc1)C(=O)C1=Cc2ccc(C(=O)N3CCN(c4ccccc4)CC3)cc2N=C(N)C1 [Compound 97] | ≤ 10 | > 500

Continued, in another order:

EC50 [1] [nM] | SMILES | EC50 [2] [nM]
≤ 10 | CCCN(OCc1ccc(N)cc1)C(=O)C1=Cc2ccc(-c3cncc(S(=O)(=O)N4CCNCC4)c3)cc2N=C(N)C1 [Compound 69] | 50 to 500
≤ 10 | CCCN(OCc1ccc(N)cc1)C(=O)C1=Cc2ccc(-c3cncc(S(=O)(=O)NCCO)c3)cc2N=C(N)C1 [Compound 70] | 10 to 50
≤ 10 | CCCN(OCc1ccc(N)cc1)C(=O)C1=Cc2ccc(-c3cncc(S(=O)(=O)N4CCC(O)CC4)c3)cc2N=C(N)C1 [Compound 71] | 10 to 50
≤ 10 | CCCN(OCc1ccc(N)cc1)C(=O)C1=Cc2ccc(-c3cncc(S(=O)(=O)N4CC[C@H](O)C4)c3)cc2N=C(N)C1 [Compound 72] | 10 to 50
≤ 10 | CCCN(OCc1ccc(N)cc1)C(=O)C1=Cc2ccc(-c3cncc([S+](C)[O-])c3)cc2N=C(N)C1 (stereo not drawn) [Compound 73] | ≤ 10
≤ 10 | CCCN(OCc1ccc(N)cc1)C(=O)C1=Cc2ccc(C(=O)NC(C)(C)c3ccccc3)cc2N=C(N)C1 [Compound 76] | 10 to 50
≤ 10 | CCCN(OCc1ccc(N)cc1)C(=O)C1=Cc2ccc(C(=O)N[C@@H](C)c3ccccc3)cc2N=C(N)C1 [Compound 77] | 10 to 50
≤ 10 | CCCN(OCc1ccc(N)cc1)C(=O)C1=Cc2ccc(C(=O)N[C@H]3C[C@@H]3c3ccccc3)cc2N=C(N)C1 [Compound 78] | ≤ 10
